Laboratory results published in patent US20110071094A1, “(D)-ALLOSE INDUCING PROGRAMMED CELL DEATH IN HORMONE REFRACTORY PROSTATE CANCER LINES” (INDUSTRY-ACADEMIC COOPERATION FOUDATION, GYEONGSANG …, priority 2008, published 2011).

How the values were obtained:
Bcl-2 mRNA = assay: RT-PCR of Bcl-2 mRNA in DU145; type: cell-based, human; conditions: DU145, 72 h, 0, 20 and 40 mM
Experimental: To identify the relative levels of expression of Bcl-2, Bax and Caspase 3 mRNAs after 0, 20 and 40 mM of D-allose treatments for 72 h, RT-PCR was performed. DU145 cell line (1×10^6 cells in triplicate culture plates) was harvested as mentioned above and total RNA was extracted using TRIzol reagent (Invitrogen, Carlsbad, Calif., USA) following a standard laboratory protocol. The RNA purity and concentrations were determined. Then 2 μg of total RNA was reversely transcribed to single-stranded cDNA using Oligo(dT)12-18 primer (Invitrogen, Carlsbad, Calif., USA) with M-MLV reverse transcriptase (Promega, Madison, Wis., USA). For PCR reaction, 4 μl of cDNA was reacted with 20 pmol each of the forward and reverse primers (Bioneer Corporation, Seoul, South Korea), and GoTaq® Green Master Mix […] containing PCR buffer, 25 mM magnesium chloride, 10 mM dNTP mix and Taq enzyme (Promega, Madison, Wis., USA), and amplified. […] The molecular sizes of the amplified products were determined by comparison with the molecular weight marker (100 by DNAladder; Promega, Madison, Wis., USA) run parallel with the PCR products. The densities of mRNA bands were analyzed by Molecular Analyst™, version 1.4.1 (Bio-Rad, Hercules, Calif., USA).

DU145 cell line = assay: Cell cycle analysis, PI staining, flow cytometry; type: cell-based, human; conditions: for cells in G0-G1 phase: 48 h, untreated control 31.9%
Experimental: DU145 cell line (1×10^6 cells in triplicate culture plates) was treated with D-allose (0, 20 and 40 mM) for 48 and 72 h. The cells were treated with trypsin and harvested with PBS, centrifuged and resuspended the pellet in cold PBS-methanol mixture (1:9) for 1 h at 4° C. The cells were centrifuged, pellet washed and resuspended with PBS again, and incubated with RNAse (20 mg/ml in PBS) for 30 min at 37° C. The cells were chilled over ice and stained with PI (1 mg/ml in PBS) for 1 h and analyzed by flow cytometry using CellQuest software, version 3.0, performed on a FACSCalibur, fluorescence (FL2-A) detector equipped with 488 nm argon laser light source and 623 nm band pass filter (Becton Dickinson, San Jose, Calif., USA). Total 10,000 cells were acquired for analysis by CellQuest software and the quantification of FACS data was performed using ModFit LT software, version 2.0, (Becton Dickinson, San Jose, Calif., USA). The cell population was gated according to the characteristics side scatter and forward scatter intensities of FACS. The number of all gated living cells was taken as 100%, from which the percentage of cells in G0-G1, S and G2-M phase was calculated and presented in the right side of the histogram.

O=C[C@H](O)[C@H](O)[C@H](O)[C@H](O)CO [D-allose]
Bcl-2 mRNA expression (Bcl-2 mRNA): significantly reduced | cells in G0-G1 phase (DU145 cell line; DU145, 20 mM): 48.7% | cells in G0-G1 phase (DU145 cell line; DU145, 40 mM): 57.5% | cell number in G2-M phase and S phase (DU145 cell line; DU145, 48 h): concomitant decrease
